Results reported in the supplement of paper PMC11451515.

Columns and labels:
Details in all cases: 48 h
SEM cells [1] = assay: AUC of viability dose-response curve (% viability x log10 dose units); higher = less sensitive
In short: (§1)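 Seeding of medium-adapted leukemia cells was at 500 or 1000 cells/well in 1536-well plates, followed by 48 h at 37°C with library compounds in DMSO at 11 threefold doses from 47 μM to 0.79 nM. CellTiter-Glo One luminescence was normalised per plate to DMSO and cell-free wells and fitted as a four-parameter log-logistic function of log10 dose. Area under the curve was integrated by trapezoidal rule, with curves exceeding full viability scaled and curves failing quality control removed.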

P12-Ichikawa [2] = assay: as above
In short: as §1

NOMO1 [3] = assay: as above
In short: as §1

SEM cells [4] = assay: cell viability relative to DMSO control; higher = less cytotoxic
In short: (§2)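 Viability was expressed as a per-plate percentage of DMSO wells, with cell-free wells as background. Leukemia cells (NOMO1 or SEM at 500 cells/well, P12-Ichikawa at 1000 cells/well) were adapted for at least four passages in each medium and seeded in 1536-well plates (5 μl). Library compounds in DMSO were pin-dosed over an 11-point threefold series from 47 μM to 0.79 nM, and CellTiter-Glo One luminescence was read after 48 h at 37°C.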

P12-Ichikawa [5] = assay: as above
In short: as §2

NOMO1 [6] = assay: as above
In short: as §2

CCOc1cc2ncc(C#N)c(Nc3ccc(OCc4ccccn4)c(Cl)c3)c2cc1NC(=O)/C=C/CN(C)C
AUC of viability dose-response curve
Details | NOMO1 [3] | P12-Ichikawa [2] | SEM cells [1]
HPLM + 10% dialyzed FBS | 279 | 293 | 276
RPMI 5 mM glucose + 10% FBS | 303 | 320 | 209
RPMI 5 mM glucose + 10% dialyzed FBS | 328 | 321 | 268

cell viability [%]
Details | NOMO1 [6] | P12-Ichikawa [5] | SEM cells [4]
HPLM + 10% dialyzed FBS, 0.000781 µM | – | 116 | 109
HPLM + 10% dialyzed FBS, 0.00234 µM | – | 124 | 122
HPLM + 10% dialyzed FBS, 0.00702 µM | – | 122 | 126
HPLM + 10% dialyzed FBS, 0.0211 µM | – | 115 | 122
HPLM + 10% dialyzed FBS, 0.0632 µM | – | 117 | 111
HPLM + 10% dialyzed FBS, 0.19 µM | – | 115 | 107
HPLM + 10% dialyzed FBS, 0.569 µM | – | 62.5 | 19.4
HPLM + 10% dialyzed FBS, 1.71 µM | – | 6.67 | 9.21
HPLM + 10% dialyzed FBS, 5.12 µM | – | 4.65 | 7.03
HPLM + 10% dialyzed FBS, 15.4 µM | – | 4.41 | 6.73
HPLM + 10% dialyzed FBS, 46.1 µM | – | 3.56 | 4.72
RPMI 5 mM glucose + 10% FBS, 0.000781 µM | 119 | 111 | 87
RPMI 5 mM glucose + 10% FBS, 0.00234 µM | 109 | 125 | 95.4
RPMI 5 mM glucose + 10% FBS, 0.00702 µM | 114 | 120 | 83.4
RPMI 5 mM glucose + 10% FBS, 0.0211 µM | 105 | 118 | 80.8
RPMI 5 mM glucose + 10% FBS, 0.0632 µM | 112 | 120 | 79.7
RPMI 5 mM glucose + 10% FBS, 0.19 µM | 124 | 121 | 31.9
RPMI 5 mM glucose + 10% FBS, 0.569 µM | 49.7 | 121 | 7.35
RPMI 5 mM glucose + 10% FBS, 1.71 µM | 20.8 | 11.3 | 5.75
RPMI 5 mM glucose + 10% FBS, 5.12 µM | 13.6 | 6.84 | 5.48
RPMI 5 mM glucose + 10% FBS, 15.4 µM | 11.2 | 5.28 | 4.73
RPMI 5 mM glucose + 10% FBS, 46.1 µM | 8.95 | 5.4 | 3.12
RPMI 5 mM glucose + 10% dialyzed FBS, 0.000781 µM | 116 | 119 | 119
RPMI 5 mM glucose + 10% dialyzed FBS, 0.00234 µM | 111 | 130 | 133
RPMI 5 mM glucose + 10% dialyzed FBS, 0.00702 µM | 103 | 121 | 117
RPMI 5 mM glucose + 10% dialyzed FBS, 0.0211 µM | 109 | 122 | 116
RPMI 5 mM glucose + 10% dialyzed FBS, 0.0632 µM | 117 | 119 | 121
RPMI 5 mM glucose + 10% dialyzed FBS, 0.19 µM | 113 | 118 | 95.9
RPMI 5 mM glucose + 10% dialyzed FBS, 0.569 µM | 83.9 | 122 | 16.9
RPMI 5 mM glucose + 10% dialyzed FBS, 1.71 µM | 36.2 | 13.5 | 8.13
RPMI 5 mM glucose + 10% dialyzed FBS, 5.12 µM | 18.3 | 7.04 | 6.73
RPMI 5 mM glucose + 10% dialyzed FBS, 15.4 µM | 13 | 5.08 | 6.47
RPMI 5 mM glucose + 10% dialyzed FBS, 46.1 µM | 11.5 | 4.99 | 4.68

C=C1C(=O)OC(CCCCCCCC)C1C(=O)O (stereo not given)
AUC of viability dose-response curve
Details | NOMO1 [3] | P12-Ichikawa [2] | SEM cells [1]
HPLM + 10% dialyzed FBS | 474 | 468 | 461
RPMI 5 mM glucose + 10% FBS | 462 | 467 | 457
RPMI 5 mM glucose + 10% dialyzed FBS | 464 | 468 | 468

cell viability [%]
Details | NOMO1 [6] | P12-Ichikawa [5] | SEM cells [4]
HPLM + 10% dialyzed FBS, 0.000781 µM | 107 | 105 | 97.2
HPLM + 10% dialyzed FBS, 0.00234 µM | 125 | 116 | 108
HPLM + 10% dialyzed FBS, 0.00702 µM | 123 | 113 | 106
HPLM + 10% dialyzed FBS, 0.0211 µM | 135 | 122 | 118
HPLM + 10% dialyzed FBS, 0.0632 µM | 135 | 123 | 108
HPLM + 10% dialyzed FBS, 0.19 µM | 139 | 122 | 105
HPLM + 10% dialyzed FBS, 0.569 µM | 130 | 124 | 111
HPLM + 10% dialyzed FBS, 1.71 µM | 125 | 121 | 107
HPLM + 10% dialyzed FBS, 5.12 µM | 104 | 129 | 90.6
HPLM + 10% dialyzed FBS, 15.4 µM | 136 | 120 | 125
HPLM + 10% dialyzed FBS, 46.1 µM | 118 | 115 | 113
RPMI 5 mM glucose + 10% FBS, 0.000781 µM | 113 | 124 | 97.5
RPMI 5 mM glucose + 10% FBS, 0.00234 µM | 114 | 120 | 99.9
RPMI 5 mM glucose + 10% FBS, 0.00702 µM | 112 | 123 | 111
RPMI 5 mM glucose + 10% FBS, 0.0211 µM | 122 | 132 | 106
RPMI 5 mM glucose + 10% FBS, 0.0632 µM | 131 | 129 | 102
RPMI 5 mM glucose + 10% FBS, 0.19 µM | 127 | 122 | 119
RPMI 5 mM glucose + 10% FBS, 0.569 µM | 119 | 137 | 108
RPMI 5 mM glucose + 10% FBS, 1.71 µM | 132 | 132 | 113
RPMI 5 mM glucose + 10% FBS, 5.12 µM | 129 | 128 | 14.1
RPMI 5 mM glucose + 10% FBS, 15.4 µM | 127 | 129 | 125
RPMI 5 mM glucose + 10% FBS, 46.1 µM | 124 | 128 | 113
RPMI 5 mM glucose + 10% dialyzed FBS, 0.000781 µM | 109 | 107 | 111
RPMI 5 mM glucose + 10% dialyzed FBS, 0.00234 µM | 123 | 116 | 98.2
RPMI 5 mM glucose + 10% dialyzed FBS, 0.00702 µM | 113 | 122 | 111
RPMI 5 mM glucose + 10% dialyzed FBS, 0.0211 µM | 130 | 129 | 126
RPMI 5 mM glucose + 10% dialyzed FBS, 0.0632 µM | 135 | 124 | 120
RPMI 5 mM glucose + 10% dialyzed FBS, 0.19 µM | 136 | 123 | 128
RPMI 5 mM glucose + 10% dialyzed FBS, 0.569 µM | 125 | 133 | 125
RPMI 5 mM glucose + 10% dialyzed FBS, 1.71 µM | 120 | 131 | 117
RPMI 5 mM glucose + 10% dialyzed FBS, 5.12 µM | 121 | 133 | 84.3
RPMI 5 mM glucose + 10% dialyzed FBS, 15.4 µM | 129 | 128 | 121
RPMI 5 mM glucose + 10% dialyzed FBS, 46.1 µM | 120 | 113 | 121
